# In patent US20220291237A1 (priority 2021, published 2022):
# Entries after “also recorded” stand apart in the source; their conditions may differ. Like-named read-outs stand apart in the source and are kept apart here.
# B1: MIG: recombinant mouse MIG (R&D systems, catalog number 492-MM) (protein, UniProt Q07325 23-125, looked up)
# C-X-C motif chemokine 9: TPVVRKGRCSCISTNQGTIHLQSLKDLKQFAPSPSCEKIEIIATLKNGVQTCLNPDSADVKELIKKWEKQVSQKKKQKNGKKHQKKKVLKVRKSQRSRQKKTT
# Assays:
# TNFSF10 = tested on: TNFSF10; parameters: species or system human
# CXCL1 = tested on: CXCL1; parameters: species or system human
# IFNG = tested on: IFNG; parameters: species or system human
# CCL11 = test: Drugs that upregulate or downregulate iAge marker (Table 9); parameters: species or system human; settings: GENE CCL11; beneficial (lowers) or detrimental (raises) to iAge
# MIG = tested on: MIG; parameters: species or system human
# aromatase = aromatase (Homo sapiens, UniProt P11511); settings: in vivo; cited from earlier work
# Mouse thoracic aortas = test: Acetylcholine relaxation of mouse thoracic aortic rings on wire myograph after MIG; settings: increasing concentrations of recombinant mouse MIG, precontracted with U46619
# Experimental: Mouse thoracic aortas were carefully dissected, and vessels were cut into small rings and mounted on an isometric wire myograph chambers (Danish Myo Technology) and subjected to a normalization protocol. Following normalization, the vessels were incubated with either PBS or different concentrations of recombinant mouse MIG (R&D systems, catalog number 492-MM). A concentration-dependent contraction curve was created by accumulative application of the prostaglandin agonist U46619. Subsequently, concentration-dependent relaxation curves of Acetylcholine were conducted on these vessels and percent relaxation calculated for each dose.
# [1] = GENE TNFSF10, beneficial (lowers) or detrimental (raises) to iAge
# [2] = GENE CXCL1, beneficial (lowers) or detrimental (raises) to iAge
# [3] = GENE IFNG, beneficial (lowers) or detrimental (raises) to iAge
# [4] = GENE CXCL9 (MIG), beneficial (lowers) or detrimental (raises) to iAge
# Sequence of TNFSF10 (P50591 whole entry): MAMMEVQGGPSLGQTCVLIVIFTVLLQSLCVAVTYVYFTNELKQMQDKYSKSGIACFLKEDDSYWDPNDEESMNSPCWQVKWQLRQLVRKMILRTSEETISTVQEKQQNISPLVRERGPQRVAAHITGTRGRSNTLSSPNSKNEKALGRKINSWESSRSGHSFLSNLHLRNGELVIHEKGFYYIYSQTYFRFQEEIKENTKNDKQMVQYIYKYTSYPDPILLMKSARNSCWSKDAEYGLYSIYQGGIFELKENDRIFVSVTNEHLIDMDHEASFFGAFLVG
# Sequence of aromatase (P11511 whole entry): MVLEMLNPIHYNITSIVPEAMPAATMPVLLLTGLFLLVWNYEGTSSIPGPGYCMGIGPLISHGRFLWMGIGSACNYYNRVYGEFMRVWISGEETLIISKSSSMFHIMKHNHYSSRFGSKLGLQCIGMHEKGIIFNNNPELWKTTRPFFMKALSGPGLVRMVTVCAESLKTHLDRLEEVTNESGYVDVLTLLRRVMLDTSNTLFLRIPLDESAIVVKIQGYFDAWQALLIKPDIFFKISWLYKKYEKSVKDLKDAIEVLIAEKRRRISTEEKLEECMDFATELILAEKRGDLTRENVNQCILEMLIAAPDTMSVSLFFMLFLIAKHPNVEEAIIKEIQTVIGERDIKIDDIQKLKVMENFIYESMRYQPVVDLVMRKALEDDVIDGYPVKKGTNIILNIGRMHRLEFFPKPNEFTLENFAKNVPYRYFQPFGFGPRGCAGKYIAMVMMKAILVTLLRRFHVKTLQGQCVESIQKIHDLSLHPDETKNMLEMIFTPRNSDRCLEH
molecule,measurement,setting,value
[Ag] [Silver],EFFECT,TNFSF10; [1],Detrimental
"CC(C)C[C@H](NC(=O)[C@H](Cc1ccccc1)NC(=O)c1cnccn1)B(O)O [Bortezomib, reference compound]",EFFECT,CXCL1; [2],Beneficial
same,EFFECT,TNFSF10; [1],Detrimental
CC#C[C@]1(O)CC[C@H]2[C@@H]3CCC4=CC(=O)CCC4=C3[C@@H](c3ccc(N(C)C)cc3)C[C@@]21C [Mifepristone],EFFECT,CXCL1; [2],Detrimental
"NC(=O)c1ncn([C@@H]2O[C@H](CO)[C@@H](O)[C@H]2O)n1 [Ribavirin, reference compound]",EFFECT,IFNG; [3],Detrimental
CC1=C(/C=C/C(C)=C/C=C/C(C)=C\C(=O)O)C(C)(C)CCC1 [Isotretinoin],EFFECT,CXCL1; [2],Detrimental
same,EFFECT,TNFSF10; [1],Beneficial
Cn1c(=O)c2[nH]cnc2n(C)c1=O [Theophylline],EFFECT,IFNG,Detrimental
"CCCCCc1cc(O)c2c(c1)OC(C)(C)[C@@H]1CCC(C)=C[C@@H]21 [Dronabinol, reference compound]",EFFECT,IFNG; [3],Detrimental
"O=c1[nH]cc(F)c(=O)[nH]1 [Fluorouracil, reference compound]",EFFECT,TNFSF10; [1],Beneficial
[Zn] [Zinc],EFFECT,CCL11,Detrimental
same,EFFECT,IFNG; [3],Beneficial
CC1=C(/C=C/C(C)=C/C=C/C(C)=C/C=C/C=C(C)/C=C/C=C(C)/C=C/C2=C(C)CCCC2(C)C)C(C)(C)CCC1 [Beta carotene],EFFECT,MIG,Detrimental
same,EFFECT,TNFSF10,Beneficial
CC(=O)Nc1ccc(O)cc1 [Acetaminophen],EFFECT,TNFSF10,Detrimental
Oc1cccc2cccnc12 [Oxyquinoline],EFFECT,TNFSF10,Beneficial
O.O.O.O.O.O.O.O.O.O=C([O-])[C@@H]1[O][Sb]2([O-])([O][Sb]34([OH])[O][C@H]([C@H](O)CO)[C@H]([O]3)[C@H](C(=O)[O-])[O]4)[O][C@H]([C@H](O)CO)[C@@H]1[O]2.[Na+].[Na+].[Na+] [Sodium stibogluconate],EFFECT,IFNG; [3],Detrimental
"CC1=C(/C=C/C(C)=C\C=C\C(C)=C\C(=O)O)C(C)(C)CCC1 [Alitretinoin, reference compound]",EFFECT,CXCL1; [2],Detrimental
same,EFFECT,IFNG; [3],Detrimental
same,EFFECT,TNFSF10; [1],Beneficial
"CC1=C(/C=C/C(C)=C/C=C/C(C)=C/C(=O)O)C(C)(C)CCC1 [Tretinoin, reference compound]",EFFECT,CXCL1; [2],Detrimental
same,EFFECT,IFNG; [3],Detrimental
same,EFFECT,TNFSF10; [1],Beneficial
[Se] [Selenium],EFFECT,CXCL1; [2],Beneficial
same,EFFECT,MIG; [4],Beneficial
same,EFFECT,TNFSF10; [1],Detrimental
C=CCc1ccc(O)c(OC)c1 [Eugenol],EFFECT,CXCL1; [2],Beneficial
N#Cc1ccc(C(c2ccc(C#N)cc2)n2cncn2)cc1 [Letrozole],reduction of estrogen levels,aromatase,98%
"CC(=O)CCCCn1c(=O)c2c(ncn2C)n(C)c1=O [Pentoxifylline, reference compound]",EFFECT,TNFSF10; [1],Beneficial
[Fe] [Iron],EFFECT,TNFSF10; [1],Beneficial
"Oc1ccc(/C=C/c2cc(O)cc(O)c2)cc1 [Resveratrol, 3,5,4′-trihydroxy-trans-stilbene]",EFFECT,CCL11,Beneficial
same,EFFECT,CXCL1; [2],Detrimental
same,EFFECT,IFNG; [3],Detrimental
C=CC[C@@H]1/C=C(\C)C[C@H](C)C[C@H](OC)[C@H]2O[C@@](O)(C(=O)C(=O)N3CCCC[C@H]3C(=O)O[C@H](/C(C)=C/[C@@H]3CC[C@@H](O)[C@H](OC)C3)[C@H](C)[C@@H](O)CC1=O)[C@H](C)C[C@@H]2OC [Tacrolimus],EFFECT,CCL11,Beneficial
CN1C(C(=O)Nc2ccccn2)=C(O)c2ccccc2S1(=O)=O [Piroxicam],EFFECT,CXCL1; [2],Detrimental
CN/C(=N/CCSCc1nc[nH]c1C)NC#N [Cimetidine],EFFECT,IFNG,Beneficial
[Cr] [Chromium],EFFECT,TNFSF10; [1],Detrimental
C[C@]12C=CC(=O)C=C1CC[C@@H]1[C@@H]2[C@@H](O)C[C@@]2(C)[C@H]1CC[C@]2(O)C(=O)CO [Prednisolone],EFFECT,CXCL1,Detrimental
CC(=O)[C@H]1CC[C@H]2[C@@H]3CCC4=CC(=O)CC[C@]4(C)[C@H]3CC[C@]12C [Progesterone],EFFECT,CXCL1; [2],Detrimental
same,EFFECT,MIG; [4],Detrimental
same,EFFECT,TNFSF10; [1],Detrimental
"CN(Cc1cnc2nc(N)nc(N)c2n1)c1ccc(C(=O)N[C@@H](CCC(=O)O)C(=O)O)cc1 [methotrexate, Methotrexate, reference compound]",EFFECT,CCL11,Beneficial
same,EFFECT,CXCL1; [2],Detrimental; also recorded: Beneficial
same,EFFECT,IFNG; [3],Detrimental
same,EFFECT,TNFSF10; [1],Beneficial
"O=C(CCCCCCC(=O)Nc1ccccc1)NO [Vorinostat, reference compound]",EFFECT,TNFSF10; [1],Beneficial
N.N.[Cl][Pt][Cl] [Cisplatin],EFFECT,TNFSF10; [1],Beneficial
[Gd] [Gadolinium],EFFECT,IFNG; [3],Beneficial
Arsenic trioxide,EFFECT,MIG; [4],Beneficial
same,EFFECT,TNFSF10; [1],Detrimental; also recorded: Beneficial
O=C([O-])CC([S-])C(=O)[O-].[Au+].[Na+].[Na+] (stereo not drawn) [Sodium aurothiomalate],EFFECT,CXCL1; [2],Detrimental
"NCCc1c[nH]cn1 [Histamine, reference compound]",EFFECT,IFNG,Detrimental
Nc1ccn([C@@H]2O[C@H](CO)[C@@H](O)C2(F)F)c(=O)n1 [Gemcitabine],EFFECT,CXCL1; [2],Beneficial
COc1cccc2c1C(=O)c1c(O)c3c(c(O)c1C2=O)C[C@@](O)(C(=O)CO)C[C@@H]3O[C@H]1C[C@H](N)[C@H](O)[C@H](C)O1 [Doxorubicin],EFFECT,TNFSF10; [1],Beneficial
"Nc1ncn([C@H]2C[C@H](O)[C@@H](CO)O2)c(=O)n1 [Decitabine, 5-aza-2′-deoxycytidine, reference compound]",EFFECT,TNFSF10; [1],Beneficial
Vitamin E,EFFECT,TNFSF10; [1],Detrimental
O=S(=O)([O-])[O-].[Zn+2] [Zinc sulfate],EFFECT,IFNG,Beneficial
"COc1cc(CNC(=O)CCCC/C=C/C(C)C)ccc1O [Capsaicin, reference compound]",EFFECT,TNFSF10; [1],Beneficial
O=O [Oxygen],EFFECT,IFNG,Beneficial
same,EFFECT,TNFSF10,Beneficial
CC[C@]1(O)C[C@H]2CN(CCc3c([nH]c4ccccc34)[C@@](C(=O)OC)(c3cc4c(cc3OC)N(C=O)[C@H]3[C@@](O)(C(=O)OC)[C@H](OC(C)=O)[C@]5(CC)C=CCN6CC[C@]43[C@@H]65)C2)C1 [Vincristine],EFFECT,MIG; [4],Detrimental
same,EFFECT,IFNG; [3],Beneficial
same,EFFECT,TNFSF10; [1],Beneficial
Nc1ccn([C@@H]2O[C@H](CO)[C@@H](O)[C@@H]2O)c(=O)n1 [Cytarabine],EFFECT,TNFSF10; [1],Beneficial
"CC(=O)N[C@@H](CS)C(=O)O [Acetylcysteine, reference compound]",EFFECT,TNFSF10; [1],Detrimental
B1,effect on vasorelaxation to Acetylcholine,Mouse thoracic aortas,impairs vascular function
